System: γH2AX foci in B16F10 cells
Assay: γH2AX foci immunofluorescence, B16F10 cells
Assay type: cell-based, mouse
Protocol: FIGS. 15A-15B3 present micrographs and graphs showing that c #3 increases DNA damage after combined treatment. (15A). Representative figures of TH2AX in A549 cells (left panel), H1975 (middle panel) and B16F10 (right panel) with different treatments as indicated. Quantification of A549 (15B1), H1975(15B2), and B16F10 cells(15B3)′ foci/cell in each treatment. The total number of cells scored is indicated. Error bars=1 SD, P-value was calculated by two-tailed t-test. In all experiments, A549 cells were treated with 10 μM cisplatin and H1975 and B16F10 cells with 5 μM cisplatin. All cell lines were co-treated with 50 μM of c #3. Cells were co-treated for 16 h before analysis.SD=1, The P-value was calculated using a one-tailed t-test.
Combined treatment of cisplatin with c #3 correlates with an increase in DNA damage. Levels of γ-H2AX foci, a marker for DNA double-strand breaks, were compared in H1975, A549 and B16F10 cell lines.

## Cc1oc(-c2ccco2)nc1CC(=O)N[C@@H](C(=O)O)c1ccccc1 [Compound 3]
B16F10, 5 μM cisplatin + 50 μM c #3, 16 h
  increase in γ-H2AX foci/cell in co-treated cells: 2 fold
B16F10, c #3 alone
  γ-H2AX signal, c #3 alone: no effect on the γ-H2AX signal

From US20250255876A1, “COMPOSITIONS AND METHODS FOR CANCER TREATMENT” (ARIEL SCIENTIFIC INNOVATIONS LTD., priority 2021, published 2025)
